US11878966B2, “Substituted 4-benzyl and 4-benzoyl piperidine derivates” (89BIO LTD, priority 2015, dated 2024)

target: T1, recombinant human baculovirus-expressed GST-tagged FASN (Homo sapiens, UniProt P49327); test: FASN enzyme activity assay: fluorescence-based detection of CoA with CPM; type: biochemical; conditions: 5 nM FASN, 150 μM NADPH, 10 μM acetyl-CoA, 25 μM malonyl-CoA, 90 minutes incubation
T1 construct: GST; host or cells: baculovirus expression system (insect cells implied)
Outline: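 IC50 values were fitted (variable-slope sigmoid) to percent inhibition from CPM fluorescence (390/530 nm) reporting free CoA after a 30 min labelling step. The reaction ran 90 min after malonyl-CoA (25 μM) addition, with 10 μM acetyl-CoA, 150 μM NADPH, 5 nM recombinant GST-FASN, 50 mM HEPES pH 7.5 and 0.5% DMSO.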

T1 sequence (P49327 whole entry): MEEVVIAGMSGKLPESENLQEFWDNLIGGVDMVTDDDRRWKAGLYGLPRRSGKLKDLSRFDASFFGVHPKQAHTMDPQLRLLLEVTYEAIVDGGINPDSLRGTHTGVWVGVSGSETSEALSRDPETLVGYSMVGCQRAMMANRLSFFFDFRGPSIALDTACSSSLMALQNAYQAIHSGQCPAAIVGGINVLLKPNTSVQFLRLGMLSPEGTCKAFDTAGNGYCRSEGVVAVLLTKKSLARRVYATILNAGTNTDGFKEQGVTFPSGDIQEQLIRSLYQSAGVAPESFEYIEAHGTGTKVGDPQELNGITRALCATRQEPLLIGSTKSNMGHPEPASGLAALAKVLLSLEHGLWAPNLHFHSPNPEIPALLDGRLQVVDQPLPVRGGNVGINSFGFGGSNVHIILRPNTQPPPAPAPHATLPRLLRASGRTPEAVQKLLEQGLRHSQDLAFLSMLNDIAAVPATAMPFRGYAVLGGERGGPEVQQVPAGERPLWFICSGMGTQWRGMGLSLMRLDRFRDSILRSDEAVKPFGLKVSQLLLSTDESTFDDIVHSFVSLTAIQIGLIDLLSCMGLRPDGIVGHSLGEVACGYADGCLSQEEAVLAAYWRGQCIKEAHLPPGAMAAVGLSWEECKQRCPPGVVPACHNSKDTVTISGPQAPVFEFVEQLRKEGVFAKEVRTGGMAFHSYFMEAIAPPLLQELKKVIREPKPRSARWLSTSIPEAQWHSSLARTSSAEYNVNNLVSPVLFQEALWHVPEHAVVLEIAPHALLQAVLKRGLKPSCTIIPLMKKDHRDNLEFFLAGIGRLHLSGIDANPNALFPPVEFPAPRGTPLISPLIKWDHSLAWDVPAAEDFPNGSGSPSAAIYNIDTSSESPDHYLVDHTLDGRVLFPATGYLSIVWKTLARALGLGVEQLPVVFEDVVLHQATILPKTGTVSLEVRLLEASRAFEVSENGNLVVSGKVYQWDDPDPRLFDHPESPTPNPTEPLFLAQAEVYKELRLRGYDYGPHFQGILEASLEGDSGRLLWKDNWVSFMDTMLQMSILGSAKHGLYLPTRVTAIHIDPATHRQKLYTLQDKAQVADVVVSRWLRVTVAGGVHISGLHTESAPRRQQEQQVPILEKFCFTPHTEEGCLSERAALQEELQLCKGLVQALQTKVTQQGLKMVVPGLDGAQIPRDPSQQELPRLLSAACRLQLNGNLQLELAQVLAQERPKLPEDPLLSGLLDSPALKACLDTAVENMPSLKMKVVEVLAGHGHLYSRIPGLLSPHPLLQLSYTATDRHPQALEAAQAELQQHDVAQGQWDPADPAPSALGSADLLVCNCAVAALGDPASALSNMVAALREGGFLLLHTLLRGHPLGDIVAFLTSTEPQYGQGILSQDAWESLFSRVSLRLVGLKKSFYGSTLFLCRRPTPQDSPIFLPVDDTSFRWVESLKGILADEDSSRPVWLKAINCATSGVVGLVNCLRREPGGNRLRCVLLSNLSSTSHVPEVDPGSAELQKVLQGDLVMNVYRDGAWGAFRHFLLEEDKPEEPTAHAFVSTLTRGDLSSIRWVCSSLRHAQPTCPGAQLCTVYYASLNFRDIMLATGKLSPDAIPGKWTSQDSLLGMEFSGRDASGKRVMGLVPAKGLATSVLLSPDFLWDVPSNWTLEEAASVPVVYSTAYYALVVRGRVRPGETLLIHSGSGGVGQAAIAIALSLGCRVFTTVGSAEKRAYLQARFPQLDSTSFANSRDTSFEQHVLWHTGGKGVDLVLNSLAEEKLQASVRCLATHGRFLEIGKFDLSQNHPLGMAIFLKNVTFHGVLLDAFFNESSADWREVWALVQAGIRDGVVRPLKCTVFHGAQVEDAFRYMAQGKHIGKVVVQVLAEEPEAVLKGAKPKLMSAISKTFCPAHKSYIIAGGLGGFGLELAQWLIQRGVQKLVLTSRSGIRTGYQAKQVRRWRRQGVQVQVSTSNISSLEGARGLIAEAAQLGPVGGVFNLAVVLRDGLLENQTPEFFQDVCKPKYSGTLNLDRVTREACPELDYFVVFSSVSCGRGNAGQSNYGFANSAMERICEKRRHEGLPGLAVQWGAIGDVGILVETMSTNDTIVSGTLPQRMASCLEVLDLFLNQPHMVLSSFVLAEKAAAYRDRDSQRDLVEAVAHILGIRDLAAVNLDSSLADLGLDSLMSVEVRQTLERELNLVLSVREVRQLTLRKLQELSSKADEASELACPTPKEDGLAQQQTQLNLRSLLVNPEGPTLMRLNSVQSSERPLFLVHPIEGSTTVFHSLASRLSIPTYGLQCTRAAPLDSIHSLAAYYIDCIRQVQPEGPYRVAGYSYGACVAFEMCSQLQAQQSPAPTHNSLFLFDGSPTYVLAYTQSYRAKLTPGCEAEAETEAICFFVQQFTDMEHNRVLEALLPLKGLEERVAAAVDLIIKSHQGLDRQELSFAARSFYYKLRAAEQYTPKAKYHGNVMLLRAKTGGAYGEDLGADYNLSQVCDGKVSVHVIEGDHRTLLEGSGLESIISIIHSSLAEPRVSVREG

Structure (SMILES) | IC50 [nM]
CCC(=O)N1CCC(C(F)c2ccc(-c3cnc4ccccc4c3)cc2)CC1 (stereo not shown) [Example 6, 1-{4-[Fluoro-(4-quinolin-3-yl-phenyl)-methyl]-piperidin-1-yl}-propan-1-one] | 1 to 99
CCCC(=O)N1CCC(C2(c3ccc(-c4ccc5ncccc5c4)cc3)OCCO2)CC1 [Example 105, 1-{4-[2-(4-Quinolin-6-yl-phenyl)-1,3-dioxolan-2-yl]-piperidin-1-yl}-butan-1-one] | 1000 to 10000
CCC(=O)N1CCC(C(N)c2ccc(-c3cnc4ccccc4c3)cc2)CC1 (stereo not shown) [Example 43, 1-{4-[amino-(4-quinolin-3-yl-phenyl)-methyl]-piperidin-1-yl}-propan-1-one] | 1000 to 10000
CCC(=O)N1CC[C@@H](Cc2ccc(-c3cnc4ccccc4c3)cc2)[C@@H](F)C1 (relative stereo) [Example 221, 1-[cis-3-Fluoro-4-(4-quinolin-3-yl-benzyl)-piperidin-1-yl]-propan-1-one] | 1 to 99
CCC(=O)N1CCC(C(CC)(OC)c2ccc(-c3cnc4ccccc4c3)cc2)CC1 (stereo not shown) [Example 210, 1-{4-[1-Methoxy-1-(4-quinolin-3-yl-phenyl)-propyl]-piperidin-1-yl}-propan-1-one] | 1000 to 10000
CCNC(=O)N1CCC(F)(Cc2ccc(-c3ccc4cccnc4c3C)cc2)CC1 [Example 228, N-ethyl-4-fluoro-4-[[4-(8-methyl-7-quinolyl)phenyl]methyl]piperidine-1-carboxamide] | 1 to 99
CCC(=O)N1CCC(C(C)(C)c2ccc(-c3cnc4ccccc4c3)cc2)CC1 [Example 205, 1-(4-(2-(4-(quinolin-3-yl)phenyl)propan-2-yl)piperidin-1-yl)propan-1-one] | 100 to 999
O=C(C1CCCO1)N1CC=C(Cc2ccc(-c3cnc4ccccc4c3)cc2)CC1 (stereo in doubt) [Example 190, (R)-(4-(4-(quinolin-3-yl)benzyl)-5,6-dihydropyridin-1(2H)-yl)(tetrahydrofuran-2-yl)methanone] | 1 to 99
CCC(=O)N1CC=C(Cc2ccc(-c3ccc4occc4c3)cc2)CC1 [Example 170, 1-(4-(4-(benzofuran-5-yl)benzyl)-5,6-dihydropyridin-1(2H)-yl)propan-1-one] | 1 to 99
CCC(=O)N1CC=C(Cc2ccc(-c3cnc4ccccc4c3C)cc2)CC1 [Example 196, 1-(4-(4-(4-Methylquinolin-3-yl)benzyl)-5,6-dihydropyridin-1(2H)-yl)propan-1-one] | 1 to 99
CCC(=O)N1CCC(C(=NOC)c2ccc(-c3ccc4cccnc4c3)cc2)CC1 (racemic) [Example 50, 1-{4-[[Methoxyimino]-(4-quinolin-7-yl-phenyl)-methyl]-piperidin-1-yl}-propan-1-one] | 1 to 99
CN(C)C(=O)N1CCC(C2(c3ccc(-c4ccc5ncccc5c4)cc3)OCCO2)CC1 [Example 103, 4-[2-(4-Quinolin-6-yl-phenyl)-1,3-dioxolan-2-yl]-piperidine-1-carboxylic acid dimethylamide] | 1000 to 10000
CC(c1ccc(-c2ccc3cccnc3c2Cl)cc1)C1CCN(C(=O)[C@H]2CCCO2)CC1 (mixture of isomers) [Example 74, (4-{1-[4-(8-Chloroquinolin-7-yl)-phenyl]-ethyl}-piperidin-1-yl)-(R)-tetrahydrofuran-2-yl-methanone] | 1 to 99
CCC(=O)N1CCC(Cc2ccc(-c3ccc4cccnc4c3C)cc2)CC1 [Example 23, 1-{4-[4-(8-Methylquinolin-7-yl)-benzyl]-piperidin-1-yl}-propan-1-one] | 1 to 99
O=C(C1CC(F)(F)C1)N1CCC(Cc2ccc(-c3cnc4ccccc4c3Cl)cc2)CC1 [Example 21, {4-[4-(4-Chloroquinolin-3-yl)-benzyl]-piperidin-1-yl}-(3,3-difluorocyclobutyl)-methanone] | 1000 to 10000
O=C(C1CC1)N1CCC(F)(Cc2ccc(-c3ccc4cccnc4c3)cc2)CC1 [Example 173, Cyclopropyl(4-fluoro-4-(4-(quinolin-7-yl)benzyl)piperidin-1-yl)methanone] | 100 to 999
Cc1c(-c2ccc(CC3=CCN(C(=O)[C@H]4CCCO4)CC3)cc2)ccc2cccnc12 [Example 200, (R)-(4-(4-(8-methylquinolin-7-yl)benzyl)-3,6-dihydropyridin-1(2H)-yl)(tetrahydrofuran-2-yl)methanone] | 1 to 99
COc1c(-c2ccc(CC3CCN(C(=O)C4CC4)CC3)cc2)ccc2cccnc12 [Example 33, Cyclopropyl-{4-[4-(8-methoxyquinolin-7-yl)-benzyl]-piperidin-1-yl}-methanone] | 1 to 99
CC(c1ccc(-c2cnc3ccccc3c2)cc1)C1CCN(C(=O)[C@H]2CCCO2)CC1 (stereo partly drawn) [Example 52, {4-[1-(4-Quinolin-3-yl-phenyl)-ethyl]-piperidin-1-yl}-(R)-tetrahydrofuran-2-yl-methanone] | 1 to 99
CCC(=O)N1CCC(C(C)c2ccc(-c3cnc4ccccc4c3)cc2)CC1 (single isomer, unassigned) [Example 68, 1-{4-[1-(4-Quinolin-3-yl-phenyl)-ethyl]-piperidin-1-yl}-propan-1-one] | 1 to 99

Structure (SMILES) | IC50 [nM]
CCC(=O)N1CC=C(Cc2ccc(-c3cncc4ccccc34)cc2)CC1 [Example 168, 1-(4-(4-(isoquinolin-4-yl)benzyl)-5,6-dihydropyridin-1(2H)-yl)propan-1-one] | 1000 to 10000
Cc1c(-c2ccc(CC3CCN(C(=O)C4CC(F)(F)C4)CC3)cc2)cnc2ccccc12 [Example 14, (3,3-Difluorocyclobutyl)-{4-[4-(4-methylquinolin-3-yl)-benzyl]-piperidin-1-yl}-methanone] | 1000 to 10000
COC(=O)N1CCC(C(=O)c2ccc(-c3cnc4ccccc4c3)cc2F)CC1 [Example 144, 4-(2-Fluoro-4-quinolin-3-yl-benzoyl)piperidine-1-carboxylic Acid Methyl Ester] | 1000 to 10000
CCC(=O)N1CCC(F)(C(OCCOC)c2ccc(-c3ccc4cccnc4c3C)cc2)CC1 (stereo not shown) [Example 226, 1-(4-Fluoro-4-{(2-methoxy-ethoxy)-[4-(8-methyl-quinolin-7-yl)-phenyl]-methyl}-piperidin-1-yl)-propan-1-one] | 1 to 99
CCC(=O)N1CCC(C(=O)c2ccc(-c3ccc4cnccc4c3)cc2F)CC1 [Example 127, 1-[4-(2-Fluoro-4-isoquinolin-6-yl-benzoyl)-piperidin-1-yl]-propan-1-one] | 1 to 99
O=C(C1CC1)N1CCC(F)(Cc2ccc(-c3ccc4cnccc4c3)cc2)CC1 [Example 175, Cyclopropyl(4-fluoro-4-(4-(isoquinolin-6-yl)benzyl)piperidin-1-yl)methanone] | 1 to 99
Cc1c(-c2ccc(CC3(F)CCN(C(=O)C4CC4)CC3)cc2)ccc2cccnc12 [Example 183, Cyclopropyl(4-fluoro-4-(4-(8-methylquinolin-7-yl)benzyl)piperidin-1-yl)methanone] | 1 to 99
O=C(NC1CCCC1)N1CCC(C2(c3ccc(-c4ccc5ncccc5c4)cc3)OCCO2)CC1 [Example 107, 4-[2-(4-Quinolin-6-yl-phenyl)-1,3-dioxolan-2-yl]-piperidine-1-carboxylic Acid Cyclopentylamide] | 1000 to 10000
CCC(=O)N1CCC(F)(Cc2ccc(-c3ccc4cccnc4c3C)cc2)CC1 [Example 185, 1-(4-fluoro-4-(4-(8-methylquinolin-7-yl)benzyl)piperidin-1-yl)propan-1-one] | 1 to 99
COCCOC(c1ccc(-c2ccc3cccnc3c2C)cc1)C1CCN(C(=O)[C@H]2CCCO2)CC1 (stereo partly drawn) [Example 80, (4-{(2-Methoxyethoxy)-[4-(8-methyl-quinolin-7-yl)-phenyl]-methyl}-piperidin-1-yl)-(R)-tetrahydrofuran-2-yl-methanone] | 1 to 99
CCC(=O)N1CC=C(Cc2ccc(-c3ccc4cccnc4c3C)cc2)CC1 [Example 186, 1-(4-(4-(8-methylquinolin-7-yl)benzyl)-3,6-dihydropyridin-1(2H)-yl)propan-1-one] | 1 to 99
CC(c1ccc(-c2cnc3ccccc3c2)cc1)C1CCN(C(=O)OC(C)(C)C)CC1 (stereo not shown) [Example 57, 4-[1-(4-quinolin-3-yl-phenyl)-ethyl]-piperidine-1-carboxylic Acid t-Butyl Ester] | 1000 to 10000
Cc1c(-c2ccc(CC3CCN(C(=O)C4CC4)CC3)cc2)ccc2cccnc12 [Example 24, Cyclopropyl-{4-[4-(8-methylquinolin-7-yl)-benzyl]-piperidin-1-yl}-methanone] | 1 to 99
CCC(=O)N1CCC(C(C)c2ccc(-c3cnc4ccccc4c3)cc2)CC1 (stereo not shown) [Example 39, 1-(4-(1-(4-(quinolin-3-yl)phenyl)ethyl)piperidin-1-yl)propan-1-one] | 1 to 99
CCC(=O)N1CCC(C(C)(O)c2ccc(-c3ccc4cnccc4c3)cc2)CC1 (stereo not shown) [Example 131, 1-{4-[1-Hydroxy-1-(4-isoquinolin-6-yl-phenyl)-ethyl]-piperidin-1-yl}-propan-1-one] | 100 to 999
Cc1c(-c2ccc(C(OCCCN3CCOCC3)C3CCN(C(=O)[C@H]4CCCO4)CC3)cc2)cnc2ccccc12 (stereo partly shown) [Example 87] | 1 to 99
CCC(=O)N1CCC(C(F)(F)c2ccc(-c3cnc4ccccc4c3)cc2)CC1 [Example 16, 1-{4-[Difluoro-(4-quinolin-3-yl-phenyl)-methyl]-piperidin-1-yl}-propan-1-one] | 100 to 999
CCC(=O)N1CCC(Cc2ccc(-c3ccc4cccnc4c3OC)cc2)CC1 [Example 32, 1-{4-[4-(8-Methoxyquinolin-7-yl)-benzyl]-piperidin-1-yl}-propan-1-one] | 1 to 99
Cc1c(-c2ccc(CC3CCN(C(=O)C4CC4)CC3)cc2)cnc2ccccc12 [Example 13, Cyclopropyl-{4-[4-(4-methylquinolin-3-yl)-benzyl]-piperidin-1-yl}-methanone] | 1 to 99
O=C([C@H]1CCCO1)N1CCC(F)(Cc2ccc(-c3ccc4cccnc4c3)cc2)CC1 [Example 187, (R)-(4-fluoro-4-(4-(quinolin-7-yl)benzyl)piperidin-1-yl)(tetrahydrofuran-2-yl)methanone] | 1 to 99
